One assay concerns the target T1, 5HT2C (Homo sapiens, UniProt P28335).
T1 sequence (P28335 33-458): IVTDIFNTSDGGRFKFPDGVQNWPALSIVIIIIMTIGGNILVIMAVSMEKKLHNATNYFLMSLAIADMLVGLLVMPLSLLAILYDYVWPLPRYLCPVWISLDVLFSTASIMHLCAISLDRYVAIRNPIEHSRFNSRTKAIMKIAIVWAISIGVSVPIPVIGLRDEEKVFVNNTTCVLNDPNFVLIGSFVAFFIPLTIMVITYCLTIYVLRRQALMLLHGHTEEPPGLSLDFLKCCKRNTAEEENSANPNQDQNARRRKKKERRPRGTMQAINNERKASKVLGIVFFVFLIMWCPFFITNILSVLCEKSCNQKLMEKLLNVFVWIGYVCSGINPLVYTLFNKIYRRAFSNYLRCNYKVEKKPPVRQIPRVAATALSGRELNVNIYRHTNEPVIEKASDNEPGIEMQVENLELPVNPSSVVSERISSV
The experiment in a line: 5HT2C receptor affinity. It is filed as binding. The settings on record: 5HT2C receptor subtype.

For a further assay, the target named is m4 receptors (Homo sapiens, UniProt P08173). In kind it is cell-based. The settings on record: CHO m4 cells treated with pertussis toxin.
Sequence of m4 receptors (P08173 whole entry): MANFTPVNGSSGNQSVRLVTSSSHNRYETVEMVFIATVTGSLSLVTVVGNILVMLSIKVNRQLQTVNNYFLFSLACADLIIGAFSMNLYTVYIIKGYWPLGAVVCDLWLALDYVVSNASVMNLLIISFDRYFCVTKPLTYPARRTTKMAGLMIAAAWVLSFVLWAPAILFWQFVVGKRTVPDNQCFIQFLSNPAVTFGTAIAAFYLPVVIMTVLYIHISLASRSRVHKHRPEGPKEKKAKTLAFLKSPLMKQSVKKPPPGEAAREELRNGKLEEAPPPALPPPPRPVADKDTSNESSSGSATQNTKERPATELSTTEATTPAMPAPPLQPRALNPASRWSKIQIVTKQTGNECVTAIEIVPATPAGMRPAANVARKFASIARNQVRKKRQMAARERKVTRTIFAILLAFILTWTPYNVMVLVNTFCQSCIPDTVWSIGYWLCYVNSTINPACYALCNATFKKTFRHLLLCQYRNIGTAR
Assay [1] addresses muscarinic cholinergic receptors. The experiment in a line: 3H-oxotremorine-M binding study. The conditions noted are these: inhibition of binding of 3H-oxotremorine-M; read-out: inhibition costant (Ki).

In general, Ki refers to the equilibrium dissociation constant of an inhibitor or competing ligand from its target. Turning to `CCCCCCOc1nsnc1C1=CCCN(C)C1` [Xanomeline, 3-(4-hexyloxy-1,2,5-thiadiazol-3-yl)-1,2,5,6-tetrahydro-1-methylpyridine], the figures for the Ki (on 5HT2C; in assay [1]) were 120 nM and 2 nM, respectively. Further, at m4 receptors, the “formation of cAMP” value is “efficaciously and potently stimulated the formation of cAMP”.

The values are drawn from patent EP0821954A1, “Method for treating mental retardation” (ELI LILLY AND COMPANY, priority 1996, dated 1998).
